Experimental data from PubChem BioAssay AID328 (DTP/NCI, 2004).
Values joined by “and” are separate entries in the source; they are usually repeats but may differ in a detail not shown here. Equal values may be shown once. Inconclusive results and toxic doses are left out.

Tested on: BDF1 mice, P388 leukemia ip, median survival T/C
Assay: NCI In Vivo Anticancer Drug Screen. Data for tumor model P388 Leukemia (intraperitoneal) in B6D2F1 (BDF1) mice
Conditions: endpoint: median survival time, higher = longer survival
Procedure, shortened: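 Compound-treated tumour-bearing mice were compared with vehicle-treated controls. Survival was recorded, and the value is the treated-group measurement divided by the control-group measurement (T/C).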

[1] = dose: 25.0 mg/kg/injection, schedule: Q01DX009 (ip), vehicle: saline with Tween-80
[2] = dose: 50.0 mg/kg/injection, schedule: Q01DX009 (ip), vehicle: saline with Tween-80
[3] = dose: 100.0 mg/kg/injection, schedule: Q01DX009 (ip), vehicle: saline with Tween-80
[4] = dose: 200.0 mg/kg/injection, schedule: Q01DX009 (ip), vehicle: saline with Tween-80
[5] = dose: 400.0 mg/kg/injection, schedule: Q01DX009 (ip), vehicle: saline with Tween-80
[6] = dose: 50.0 mg/kg/injection, schedule: Q04DX003 (ip), vehicle: saline with Tween-80
[7] = dose: 200.0 mg/kg/injection, schedule: Q04DX003 (ip), vehicle: saline with Tween-80
[8] = dose: 100.0 mg/kg/injection, schedule: Q01DX009 (ip), vehicle: saline
[9] = dose: 200.0 mg/kg/injection, schedule: Q01DX009 (ip), vehicle: saline
[10] = dose: 100.0 mg/kg/injection, schedule: Q04DX002 (ip), vehicle: saline with Tween-80
[11] = dose: 200.0 mg/kg/injection, schedule: Q04DX002 (ip), vehicle: saline with Tween-80
[12] = dose: 400.0 mg/kg/injection, schedule: Q04DX002 (ip), vehicle: saline with Tween-80
[13] = dose: 50.0 mg/kg/injection, schedule: Q01DX009 (ip), vehicle: Klucel (hydroxypropylcellulose) (HPC)
[14] = dose: 50.0 mg/kg/injection, schedule: Q04DX003 (ip), vehicle: Klucel (hydroxypropylcellulose) (HPC)
[15] = dose: 100.0 mg/kg/injection, schedule: Q01DX009 (ip), vehicle: Klucel (hydroxypropylcellulose) (HPC)
[16] = dose: 100.0 mg/kg/injection, schedule: Q04DX003 (ip), vehicle: Klucel (hydroxypropylcellulose) (HPC)
[17] = dose: 200.0 mg/kg/injection, schedule: Q01DX009 (ip), vehicle: Klucel (hydroxypropylcellulose) (HPC)
[18] = dose: 200.0 mg/kg/injection, schedule: Q04DX003 (ip), vehicle: Klucel (hydroxypropylcellulose) (HPC)
[19] = dose: 400.0 mg/kg/injection, schedule: Q01DX009 (ip), vehicle: Klucel (hydroxypropylcellulose) (HPC)
[20] = dose: 100.0 mg/kg/injection, schedule: Q04DX003 (ip), vehicle: saline with Tween-80
[21] = dose: 75.0 mg/kg/injection, schedule: Q01DX009 (ip), vehicle: saline with Tween-80
[22] = dose: 150.0 mg/kg/injection, schedule: Q01DX009 (ip), vehicle: saline with Tween-80
[23] = dose: 300.0 mg/kg/injection, schedule: Q01DX009 (ip), vehicle: saline with Tween-80

SMILES: CCCC(=O)OCc1ccc(Cl)c(Cl)c1
- T/C [1]: 100 % of control
- T/C [2]: 108 % of control
- T/C [3]: 112 % of control

SMILES: Cc1noc2nccnc12
- T/C [1]: 95 % of control
- T/C [2]: 95 % of control

SMILES: O=c1[nH]cnc2nc(Br)[nH]c12
- T/C [2]: 100 % of control
- T/C [3]: 101 % of control
- T/C [4]: 93 % of control
- T/C [5]: 101 % of control

SMILES: O=C(Nc1ccccc1F)C12CC3CC(CC(C3)C1)C2
- T/C [2]: 92 % of control
- T/C [3]: 96 % of control
- T/C [4]: 96 % of control

SMILES: CCC1(C)CCC2=C(CCC3C(C)(C(=O)O)CCCC23C)C1 (stereo not given)
- T/C [2]: 100 % of control
- T/C [6]: 96 % of control
- T/C [3]: 87 % of control
- T/C [4]: 100 % of control
- T/C [7]: 96 % of control

SMILES: CCCC(NC(N)=O)C(CCC)NC(N)=O (stereo not given)
- T/C (dose: 12.5 mg/kg/injection, schedule: Q01DX009 (ip), vehicle: saline with Tween-80): 102 % of control
- T/C [1]: 100 % of control
- T/C [2]: 89 % of control

SMILES: COCCCC/C(=N\OCCN)c1ccc(C(F)(F)F)cc1
- T/C (dose: 50.0 mg/kg/injection, schedule: Q01DX009 (ip), vehicle: saline): 103 % of control
- T/C [8]: 112 % of control
- T/C [9]: 108 % of control

SMILES: COc1nc(NC2OCC(O)C(O)C2O)c(C(=O)CCl)c(=O)n1C (stereo not given)
- T/C [10]: 104 % of control
- T/C [11]: 100 % of control
- T/C [12]: 100 % of control

SMILES: OC1(C#CC2(O)CCCCC2)CCCCC1
- T/C [13]: 96 % of control
- T/C [14]: 109 % of control
- T/C [15]: 100 % of control
- T/C [16]: 109 % of control
- T/C [17]: 96 % of control
- T/C [18]: 100 % of control

SMILES: COC(=O)C(C)(OC)OC
- T/C [8]: 100 % of control
- T/C [9]: 100 % of control
- T/C (dose: 400.0 mg/kg/injection, schedule: Q01DX009 (ip), vehicle: saline): 100 % of control

SMILES: OCC1=CCCCC1
- T/C [2]: 106 % of control
- T/C [3]: 98 % of control
- T/C [4]: 104 % of control

SMILES: CN(C)c1ccc(/C=C\C(=O)c2ccccc2)cc1
- T/C [15]: 100 % of control
- T/C [17]: 110 % of control
- T/C [19]: 120 % of control

SMILES: CC(=O)N(C)c1ccc(N)cc1
- T/C (dose: 100.0 mg/kg/injection, schedule: Q04DX003 (ip), vehicle: saline): 100 % of control
- T/C (dose: 200.0 mg/kg/injection, schedule: Q04DX003 (ip), vehicle: saline): 100 % of control
- T/C (dose: 400.0 mg/kg/injection, schedule: Q04DX003 (ip), vehicle: saline): 109 % of control

SMILES: CC1CC2CCCCN2O1 (stereo not given)
- T/C [10]: 102 % of control
- T/C [11]: 103 % of control
- T/C [12]: 105 % of control

SMILES: C(=NCCN=Cc1c[nH]c2ccccc12)c1c[nH]c2ccccc12
- T/C [6]: 111 % of control
- T/C [3]: 88 % of control
- T/C [20]: 103 % of control
- T/C [4]: 92 % of control
- T/C [7]: 100 % of control
- T/C [5]: 103 % of control

SMILES: C/C=C/C[n+]1cccc2ccccc21
- T/C (dose: 6.25 mg/kg/injection, schedule: Q01DX009 (ip), vehicle: Klucel (hydroxypropylcellulose) (HPC)): 86 % of control
- T/C (dose: 6.25 mg/kg/injection, schedule: Q04DX003 (ip), vehicle: saline): 104 % of control
- T/C (dose: 12.5 mg/kg/injection, schedule: Q01DX009 (ip), vehicle: Klucel (hydroxypropylcellulose) (HPC)): 90 % of control
- T/C (dose: 12.5 mg/kg/injection, schedule: Q04DX003 (ip), vehicle: saline): 104 % of control
- T/C (dose: 25.0 mg/kg/injection, schedule: Q01DX009 (ip), vehicle: Klucel (hydroxypropylcellulose) (HPC)): 86 % of control
- T/C (dose: 25.0 mg/kg/injection, schedule: Q04DX003 (ip), vehicle: saline): 109 % of control

SMILES: CCOC(=S)SCC(=O)Nc1ccc(Cl)cc1
- T/C [21]: 110 % of control
- T/C [22]: 89 % of control
- T/C [23]: 89 % of control

SMILES: O=C(CNC(c1ccccc1)(c1ccccc1)c1ccccc1)OC(c1ccccc1)c1ccccc1
- T/C [20]: 104 % of control
- T/C [7]: 104 % of control
- T/C (dose: 400.0 mg/kg/injection, schedule: Q04DX003 (ip), vehicle: saline with Tween-80): 100 % of control

SMILES: CC(C)(C(Cl)Cl)S(=O)(=O)O (tested in a mixture with another compound)
- T/C [21]: 100 % of control
- T/C (dose: 75.0 mg/kg/injection, schedule: Q04DX003 (ip), vehicle: saline with Tween-80): 110 % of control
- T/C [22]: 100 % of control
- T/C (dose: 150.0 mg/kg/injection, schedule: Q04DX003 (ip), vehicle: saline with Tween-80): 100 % of control
- T/C [23]: 109 % of control
- T/C (dose: 300.0 mg/kg/injection, schedule: Q04DX003 (ip), vehicle: saline with Tween-80): 110 % of control

SMILES: COc1ccc(CC2c3cc(OC)c(OC)cc3CC[N+]2(C)C)cc1OC (stereo not given)
- T/C (dose: 12.5 mg/kg/injection, schedule: Q01DX009 (ip), vehicle: saline sonified): 108 % of control
- T/C (dose: 25.0 mg/kg/injection, schedule: Q01DX009 (ip), vehicle: saline sonified): 100 % of control
- T/C (dose: 50.0 mg/kg/injection, schedule: Q01DX009 (ip), vehicle: saline sonified): 91 % of control

SMILES: NC(N)=NCCCCCCC(=O)Nc1ccc(S(N)(=O)=O)cc1
- T/C [1]: 112 % of control
- T/C [2]: 106 % of control
- T/C [3]: 97 % of control

SMILES: O=C(Nc1ccc(C2=NCCCN2)cc1)c1ccc(C(=O)Nc2ccc(C3=NCCCN3)cc2)cc1
- T/C (dose: 7.2 mg/kg/injection, schedule: Q04DX003 (ip), vehicle: Klucel (hydroxypropylcellulose) (HPC)): 177 % of control
- T/C (dose: 8.7 mg/kg/injection, schedule: Q04DX003 (ip), vehicle: saline with Tween-80): 152 % of control
- T/C (dose: 10.8 mg/kg/injection, schedule: Q04DX003 (ip), vehicle: other): 194 % of control
- T/C (dose: 12.0 mg/kg/injection, schedule: Q04DX003 (ip), vehicle: Klucel (hydroxypropylcellulose) (HPC)): 194 % of control
- T/C (dose: 13.2 mg/kg/injection, schedule: Q04DX003 (ip), vehicle: saline with Tween-80): 168 % of control and 172 % of control
- T/C (dose: 18.0 mg/kg/injection, schedule: Q04DX003 (ip), vehicle: other): 203 % of control
- T/C (dose: 20.0 mg/kg/injection, schedule: Q04DX003 (ip), vehicle: Klucel (hydroxypropylcellulose) (HPC)): 250 % of control
- T/C (dose: 20.0 mg/kg/injection, schedule: Q04DX003 (ip), vehicle: saline with Tween-80): 250 % of control and 195 % of control
- T/C (dose: 30.0 mg/kg/injection, schedule: Q04DX003 (ip), vehicle: other): 97 % of control
- T/C (dose: 30.0 mg/kg/injection, schedule: Q04DX003 (ip), vehicle: saline with Tween-80): 268 % of control and 272 % of control
- T/C (dose: 33.3 mg/kg/injection, schedule: Q04DX003 (ip), vehicle: Klucel (hydroxypropylcellulose) (HPC)): 250 % of control

SMILES: CC12CCC(OC3OC(CO)C(O)C(O)C3O)CC1CCC1C2CCC2(C)C(C3=CC(=O)OC3)CCC12O (stereo not given)
- T/C (dose: 40.0 mg/kg/injection, schedule: Q01DX009 (ip), vehicle: saline): 86 % of control
- T/C (dose: 80.0 mg/kg/injection, schedule: Q01DX009 (ip), vehicle: saline): 86 % of control
- T/C (dose: 160.0 mg/kg/injection, schedule: Q01DX009 (ip), vehicle: saline): 95 % of control

SMILES: O=S(=O)(c1cccc(C(F)(F)F)c1)N1c2ccccc2-n2cccc2C1c1cccnc1 (stereo not given)
- T/C [13]: 94 % of control
- T/C [15]: 103 % of control
- T/C [17]: 96 % of control

SMILES: Cc1ncc([N+](=O)[O-])n1CCO
- T/C [14]: 100 % of control
- T/C [16]: 100 % of control
- T/C [18]: 95 % of control
- T/C (dose: 400.0 mg/kg/injection, schedule: Q04DX003 (ip), vehicle: Klucel (hydroxypropylcellulose) (HPC)): 91 % of control

SMILES: CC(=O)c1c(C)c([N+](=O)[O-])c(C(C)(C)C)c([N+](=O)[O-])c1C
- T/C [17]: 91 % of control and 100 % of control
- T/C [19]: 100 % of control and 123 % of control
